# Measurements taken from patent US4118561A, “7-(Substituted)-7H-pyrrolo[3,2-f]quinazoline-1,3-diamines” (priority 1977, dated 1978).
# Key:
# S. aureus Smith = assay: In vitro antibacterial activity (MIC), S. aureus Smith; settings: Staphylococcus aureus, 18 h
# N. catarrhalis 8193 = assay: In vitro antibacterial activity (MIC), N. catarrhalis 8193; settings: 18 h
# K. pneumoniae 10031 = assay: In vitro antibacterial activity (MIC), K. pneumoniae 10031; settings: Klebsiella pneumoniae, 10031, 18 h
# P. vulgaris 6896 = assay: In vitro antibacterial activity (MIC), P. vulgaris 6896; settings: Proteus vulgaris, 6896, 18 h
# S. aureus 53-180 = assay: In vitro antibacterial activity (MIC), S. aureus 53-180; settings: Staphylococcus aureus, 53180, 18 h
# S. paratyphi 11737 = assay: In vitro antibacterial activity (MIC), S. paratyphi 11737; type: cell-based; settings: Salmonella enterica, 18 h
# E. coli 9637 = assay: In vitro antibacterial activity (MIC), E. coli 9637; settings: Escherichia coli, 9637, 18 h
Compound,MIC (S. aureus Smith) [µg/mL],MIC (N. catarrhalis 8193) [µg/mL],MIC (K. pneumoniae 10031) [µg/mL],MIC (P. vulgaris 6896) [µg/mL],MIC (S. aureus 53-180) [µg/mL],MIC (S. paratyphi 11737) [µg/mL],MIC (E. coli 9637) [µg/mL]
"Nc1nc(N)c2c(ccc3c2ccn3CC2CCCO2)n1 (stereo not shown) [Example 67, 7-[(Tetrahydro-2-furanyl)methyl]-7H-pyrrolo-[3,2-f]quinazoline-1,3-diamine]",3.9,0.0038,0.488,3.9,0.976,7.81,1.95
"Nc1nc(N)c2c(ccc3c2ccn3Cc2ccc(C(=O)[O-])cc2)n1.[Na+] [Example 68, 7-(4-Carboxybenzyl)-7H-pyrrolo[3,2-f]-quinazoline-1,3-diamine, sodium salt]",250,62.5,> 250,250,250,> 250,> 250
CCC(=O)c1ccc(-n2ccc3c4c(N)nc(N)nc4ccc32)cc1 [Example 72],31.3,0.031,31.3,> 250,7.81,> 250,15.6
N#Cc1ccccc1-n1ccc2c3c(N)nc(N)nc3ccc21 [Example 73],0.031,0.0038,0.0152,0.488,0.0152,0.122,0.122
CS(=O)(=O)c1ccc(-n2ccc3c4c(N)nc(N)nc4ccc32)cc1 [Example 74],0.976,0.0152,0.244,15.6,0.976,7.81,0.976
CCOC(=O)c1ccc(-n2ccc3c4c(N)nc(N)nc4ccc32)cc1 [Example 75],125,0.122,250,> 250,7.81,> 250,> 250
Nc1nc(N)c2c(ccc3c2ccn3-c2ccc([N+](=O)[O-])cc2[N+](=O)[O-])n1 [Example 78],0.0076,0.0019,0.031,> 250,0.0076,> 250,3.9
N#Cc1cc([N+](=O)[O-])ccc1-n1ccc2c3c(N)nc(N)nc3ccc21 [Example 79],0.488,0.244,1.95,> 250,0.488,> 250,15.6
Nc1nc(N)c2c(ccc3c2ccn3-c2ccccn2)n1 [Example 83],0.976,0.0076,0.244,0.976,0.488,0.976,0.488
Nc1nc(N)c2c(ccc3c2ccn3-c2ncccn2)n1 [Example 84],15.6,0.061,0.976,> 250,3.9,> 250,7.81
Nc1nc(N)c2c(ccc3c2ccn3-c2cnccn2)n1 [Example 85],3.9,0.122,0.976,3.9,1.95,3.9,0.976
Nc1nc(N)c2c(ccc3c2ccn3-c2ccc3ccccc3n2)n1 [Example 86],> 250,0.122,> 250,> 250,> 250,> 250,> 250
Nc1nc(N)c2c(ccc3c2ccn3-c2ccnc3ccccc23)n1 [Example 87],0.031,0.031,0.031,1.95,0.0152,0.976,0.488
Cc1cc(-n2ccc3c4c(N)nc(N)nc4ccc32)nc2ccccc12 [Example 88],62.5,0.061,31.3,> 250,31.3,> 250,62.5
Nc1nc(N)c2c(ccc3c2ccn3-c2ccnc3cc(Cl)ccc23)n1 [Example 89],0.488,0.244,0.488,250,0.122,> 250,15.6
Nc1nc(N)c2c(ccc3c2ccn3-c2ccnc3cc(C(F)(F)F)ccc23)n1 [Example 90],0.122,0.031,0.244,250,0.031,31.3,0.244
